From patent publication EP2961788B1, “NANOPARTICLES STABILIZED WITH NITROPHENYLBORONIC ACID COMPOSITIONS” (priority 2013, dated 2014)
Like-named read-outs stand apart in the source and are kept apart here.

Test system: BT-474 xenograft tumors
Description: Treatments began on day 1. […] All treatments were freshly prepared and given via intravenous tail vein injection. Injections were standardized at 150 µl per 20 g body weight of mice. […] Tumor sizes were recorded three times a week using caliper measurements (length x width^2/2) and health of the animals was continuously monitored. Animals were euthanized when tumor volumes exceeded 1000 mm^3. Six weeks after beginning of the treatment, animals were euthanized by CO2 asphyxiation.

[1] = 80 mg/kg, once per week for 3 weeks
[2] = 8 mg/kg, once per week for 3 weeks

Compound | NTRD (number of treatment related death) [1] | Neuthan (number of animals euthanized due to exceeding tumor size limit of 1000 mm^3) [1] | Nreg to zero [1] | tumor inhibition compared to control group [1] | Nend (number of animals surviving to end of study) (8 mg/kg (MAP-CPT: CPT basis), i.v. once per week for 3 weeks) | NTRD (number of treatment related death) [2] | Nreg to zero [2] | tumor inhibition compared to control group [2]
CCc1c2c(nc3ccc(OC(=O)N4CCC(N5CCCCC5)CC4)cc13)-c1cc3c(c(=O)n1C2)COC(=O)[C@]3(O)CC [Irinotecan] | 1 | 0 | 0 | non-significant tumor inhibition | – | – | – | –
CC[C@@]1(O)C(=O)OCc2c1cc1n(c2=O)Cc2cc3ccccc3nc2-1 [CPT, Camptothecin] | – | – | – | – | 8/0 | 4 | 0 | no tumor inhibition
